# Assay results: PubChem BioAssay AID342 (DTP/NCI, 2004)
# “And” between values parts separate entries of the source, which are not always exact repeats. Equal entries are not always repeated.
# Test system: Swiss mice, Sarcoma 180 sc, mean tumor weight T/C
# Experiment: NCI In Vivo Anticancer Drug Screen. Data for tumor model Sarcoma 180 (subcutaneous) in Swiss mice
# Settings: endpoint: mean tumor weight, higher = larger tumour
# Description: The antitumor activity of compounds was measured in mice bearing transplantable tumors. Survival or tumor size were measured and the results are expressed as the measurement made in the treated group (T) divided by the measurement made in the vehicle treated control group (C). The tumor model used in this assay is Sarcoma 180 (subcutaneous) in Swiss mice
# [1] = dose: 62.5 mg/kg/injection, schedule: Q01DX007 (ip), vehicle: saline
# [2] = dose: 125.0 mg/kg/injection, schedule: Q01DX007 (ip), vehicle: saline
smiles,measurement,setting,value
NC(=O)Nc1n[se]nc1C(=O)O,T/C,"dose: 20.0 mg/kg/injection, schedule: Q01DX007 (ip), vehicle: saline",111 % of control
same,T/C,"dose: 30.0 mg/kg/injection, schedule: Q01DX007 (ip), vehicle: saline",75 % of control
Cc1ncc([N+](=O)[O-])n1CCCl,T/C,[1],108 % of control
same,T/C,"dose: 250.0 mg/kg/injection, schedule: Q01DX007 (ip), vehicle: saline",78 % of control
O=C1c2ccccc2C(=O)c2c1ccc1c2[nH]c2ccccc21,T/C,"dose: 82.0 mg/kg/injection, schedule: Q01DX007 (ip), vehicle: saline",48 % of control
same,T/C,[2],50 % of control
same,T/C,"dose: 187.0 mg/kg/injection, schedule: Q01DX007 (ip), vehicle: saline",23 % of control
same,T/C,"dose: 280.0 mg/kg/injection, schedule: Q01DX007 (ip), vehicle: saline",42 % of control
CCCCCN(C)/N=N/c1nc[nH]c1C(N)=O,T/C,"dose: 50.0 mg/kg/injection, schedule: Q01DX007 (ip), vehicle: carboxymethylcellulose (CMC)",41 % of control and 51 % of control
same,T/C,"dose: 75.0 mg/kg/injection, schedule: Q01DX007 (ip), vehicle: carboxymethylcellulose (CMC)",23 % of control and 36 % of control
same,T/C,"dose: 100.0 mg/kg/injection, schedule: Q01DX007 (ip), vehicle: carboxymethylcellulose (CMC)",24 % of control
Nc1nc(SC2=NCCN2)c2[nH]cnc2n1,T/C,"dose: 1.25 mg/kg/injection, schedule: Q01DX007 (ip), vehicle: carboxymethylcellulose (CMC)",57 % of control
same,T/C,"dose: 2.5 mg/kg/injection, schedule: Q01DX007 (ip), vehicle: carboxymethylcellulose (CMC)",67 % of control
same,T/C,"dose: 5.0 mg/kg/injection, schedule: Q01DX007 (ip), vehicle: carboxymethylcellulose (CMC)",57 % of control
NNc1nnc(NN)c2ccccc12,T/C,"dose: 31.25 mg/kg/injection, schedule: Q01DX007 (ip), vehicle: saline",167 % of control
same,T/C,[1],176 % of control
same,T/C,[2],119 % of control
CN1C=c2c3c(ccc2=C2C=CC4C=C5OCOC5=CC4=C21)OCO3 (stereo not given),T/C,"dose: 1.3 mg/kg/injection, schedule: Q#A X014 (ip), vehicle: saline",105 % of control
same,T/C,"dose: 2.0 mg/kg/injection, schedule: Q#A X014 (ip), vehicle: saline",82 % of control
same,T/C,"dose: 3.0 mg/kg/injection, schedule: Q#A X014 (ip), vehicle: saline",79 % of control and 96 % of control
same,T/C,"dose: 10.0 mg/kg/injection, schedule: Q#A X014 (ip), vehicle: saline",28 % of control
same,T/C,"dose: 12.0 mg/kg/injection, schedule: Q#A X014 (oral), vehicle: saline",84 % of control
same,T/C,"dose: 18.0 mg/kg/injection, schedule: Q#A X014 (oral), vehicle: saline",70 % of control
same,T/C,"dose: 27.0 mg/kg/injection, schedule: Q#A X014 (oral), vehicle: saline",73 % of control
same,T/C,"dose: 60.0 mg/kg/injection, schedule: Q#A X014 (oral), vehicle: saline",53 % of control
[N-]=[N+]=[N-],T/C,"dose: 1.5 mg/kg/injection, schedule: Q01DX007 (ip), vehicle: carboxymethylcellulose (CMC)",88 % of control
same,T/C,"dose: 3.0 mg/kg/injection, schedule: Q01DX007 (ip), vehicle: carboxymethylcellulose (CMC)",61 % of control
same,T/C,"dose: 6.0 mg/kg/injection, schedule: Q01DX007 (ip), vehicle: carboxymethylcellulose (CMC)",76 % of control
same,T/C,"dose: 12.0 mg/kg/injection, schedule: Q01DX007 (ip), vehicle: carboxymethylcellulose (CMC)",69 % of control
CC#CC(C)(O)CC (stereo not given),T/C,"dose: 77.0 mg/kg/injection, schedule: Q#A X014 (ip), vehicle: methylcellulose (MC)",79 % of control
same,T/C,"dose: 115.5 mg/kg/injection, schedule: Q#A X014 (ip), vehicle: methylcellulose (MC)",75 % of control
same,T/C,"dose: 175.0 mg/kg/injection, schedule: Q#A X014 (ip), vehicle: methylcellulose (MC)",51 % of control
same,T/C,"dose: 212.5 mg/kg/injection, schedule: Q#A X014 (ip), vehicle: methylcellulose (MC)",44 % of control
Cc1cc(C(=O)NN)c(C#N)c(=O)[nH]1,T/C,"dose: 111.0 mg/kg/injection, schedule: Q01DX007 (ip), vehicle: carboxymethylcellulose (CMC)",82 % of control
same,T/C,"dose: 166.0 mg/kg/injection, schedule: Q01DX007 (ip), vehicle: carboxymethylcellulose (CMC)",87 % of control
same,T/C,"dose: 250.0 mg/kg/injection, schedule: Q01DX007 (ip), vehicle: carboxymethylcellulose (CMC)",30 % of control
same,T/C,"dose: 375.0 mg/kg/injection, schedule: Q01DX007 (ip), vehicle: carboxymethylcellulose (CMC)",46 % of control
COc1ccc(-c2cc(=O)c3c(O)c(OC)c(O)cc3o2)cc1,T/C,"dose: 25.0 mg/kg/injection, schedule: Q01DX007 (ip), vehicle: saline",73 % of control
same,T/C,"dose: 50.0 mg/kg/injection, schedule: Q01DX007 (ip), vehicle: saline",79 % of control
same,T/C,"dose: 100.0 mg/kg/injection, schedule: Q01DX007 (ip), vehicle: saline",85 % of control
